# In patent publication US8853234B2, “Quinolone analogs and methods related thereto” (Senhwa Biosciences, Inc., priority 2007, dated 2014):
# Key:
# [1] = test system: HCT-116 human colorectal carcinoma cells; assay: Alamar Blue (AB) cell proliferation assay, HCT-116; assay type: cell-based; settings: 96 h, Alamar Blue cell proliferation inhibition, HCT-116, four days
# Description: A representative cell-proliferation assay protocol using Alamar Blue dye (stored at 4° C., use 20 ul per well) is described hereafter.
# 96-Well Plate Setup and Compound Treatment
# a. Split and trypsinize cells.
# b. Count cells using hemocytometer.
# c. Plate 4,000-5,000 cells per well in 100 μl of medium and seed into a 96-well plate according to the following plate layout. Add cell culture medium only to wells B10 to B12. Wells B1 to B9 have cells but no compound added.
# d. Add 100 μl of 2× drug dilution to each well in a concentration shown in the plate layout above. At the same time, add 100 μl of media into the control wells (wells B10 to B12). Total volume is 200 μl/well.
# e. Incubate four (4) days at 37° C., 5% CO2 in a humidified incubator.
# f. Add 20 μl Alamar Blue reagent to each well.
# g. Incubate for four (4) hours at 37° C., 5% CO2 in a humidified incubator.
# h. Record fluorescence at an excitation wavelength of 544 nm and emission wavelength of 590 nm using a microplate reader.
# In the assays, cells are cultured with a test compound for approximately four days, the dye then is added to the cells and fluorescence of […] dye is detected after approximately four hours. Different types of cells can be utilized in the assays (e.g., HCT-116 human colorectal carcinoma cells, PC-3 human prostatic cancer cells and MiaPaca human pancreatic carcinoma cells). Anti-proliferative effects of representative compounds are provided hereafter.
# Representative cassette dosing and bioavailability data are given in Table 8, along with cell proliferation inhibition (from Alamar Blue (AB) assay (e.g., Example 45 herein) and rRNA inhibition (from quantitative PCR (QPCR) assay (e.g., Example 46 herein).
# [2] = test system: rDNA; assay: Quantitative PCR (QPCR) assay, rRNA inhibition (rDNA); assay type: cell-based; design: Selectivity: reference not given here; settings: for Selectivity: not defined in the patent; for IC50: rRNA inhibition from quantitative PCR assay
# Text: In a specific assay embodiment, provided herein is a method for identifying a molecule that modulates ribosomal RNA (rRNA) synthesis, which comprises: contacting cells with a test molecule of Formula (I), (II), (III), (IV), (V), (VI), (VI′), (VII), or (VIII), contacting a ribosomal nucleotide sequence with one or more primers that amplify a portion thereof and a labeled probe that hybridizes to the amplification product, and detecting the amount of the amplification product by hybridization of the labeled probe, whereby a test molecule that reduces or increases the amount of amplification product is identified as a molecule that modulates rRNA synthesis. The labeled probe in some embodiments is added after the primers are added and the rRNA is amplified, and in certain embodiments, the labeled probe and the primers are added at the same time. The portion of ribosomal nucleotide sequence amplified sometimes is at the 5′ end of rDNA.
# Real-time quantitative PCR (QPCR) method may be used to detect the changes of the target c-myc and the endogenous reference GAPDH gene copies in the same tube. Generally, cells (15,000 cells/well) are seeded on 96 well flat bottom plates (Corning, N.Y.) and incubated under normal growth conditions for overnight. The next day, the culture medium is exchanged for that containing anticancer drugs at various concentrations and incubated for 4 hrs in a humidified atmosphere of 5% CO2 at 37° C. Total RNA (tRNA) is extracted using the RNeasy 96 Kit (QIAGEN, CA). The concentration of the tRNA is determined by the RiboGreen RNA Quantitation Reagent (Molecular Probes, OR).
# A reverse-transcription (RT) reaction may be conducted using 50 ng of tRNA from each well in a 25 μl reaction containing 1× TaqMan RT buffer, 2.5 uM random hexamers, 5.5 mM MgCl2, 0.5 mM each deoxynucleoside triphosphate (dNTP), 30 U MultiScribe Reverse Transcriptase, and 10 U RNase inhibitor. RT reactions are incubated for 10 min at 25° C., reverse-transcribed for 30 min at 48° C., inactivated for 5 min at 95° C., and placed at 4° C. All RT reagents may be purchased from Applied Biosystems, CA.
# Real-Time QPCR reaction may be performed in a 50 μl reaction containing the 5 μl of cDNA, 1× Universal PCR Master Mix, 1× c-myc Pre-Developed Primers and Probe set, and 0.8×GAPDH Pre-Developed Primers and Probe set. Because of the relative abundance of GAPDH gene in Hela, GAPDH primers and probe concentration may be adjusted to get accurate threshold cycles (CT) for both genes in the same tube. The threshold cycle (CT) indicates the fractional cycle number at which the amount of amplified target reaches a fixed threshold. By doing so, the GAPDH amplification is stopped before it can limit the common reactants available for amplification of the c-myc. The ΔRn value represents the normalized reporter signal minus the baseline signal. ΔRn increases during PCR as amplicon copy number increases until the reaction approaches a plateau.
# The c-myc probe is labeled with 6FAM™ dye-MGB and the GAPDH probe is labeled with VIC™ dye-MTB. Preincubation is performed for 2 min at 50° C. to activate AmpErase UNG enzyme and then for 10 min at 95° C. to activate AmpliTaq DNA Polymerase. DNA is amplified for 40 cycles of 15 sec at 95° C. and 1 min at 60° C. Human c-myc and GAPDH cDNA are amplified, detected, and quantitated in real time using the ABI Prism 7000 Sequence Detection system (Applied Biosystems, CA), which is set to detect both 6-FAM and VIC reporter dyes simultaneously.
# The data may be analyzed using the ABI PRISM Sequence Detection System and Microsoft Excel. Relative quantitation is done using the standard curve and comparative CT method at the same time, and both methods gave equivalent results. The cycle at which the amplification plot crosses the CT is known to accurately reflect relative mRNA values. (See, Heid, et al., Genome Res. (1996) 6:986-994; Gibson, et al., Genome Res. (1996) 6:995-1001). […]
SMILES,IC50 [1] [nM],Selectivity [2],IC50 [2] [nM]
CN1CCCC1CCNC(=O)c1c(=O)c2cc(F)c(N3CCOCC3)nc2n2c3ccccc3n(C)c12 (stereo not drawn),210,8,521
O=C(NCCNC1CCC1)c1c(=O)c2ccc(N3CCOCC3)nc2n2c1sc1ccccc12,286,16,176
CN1CCN(c2ccc3c(=O)c(C(=O)NC4CC4)c4n(C)c5ccccc5n4c3n2)CC1,202,4,127
O=C(NCCNC1CC1)c1c(=O)c2ccc(N3CCOCC3)nc2n2c1sc1ccccc12 [drawing 604],65,39,100
Cc1cnc(CNC(=O)c2c(=O)c3ccc(N4CCN(C)CC4)nc3n3c2sc2ccccc23)cn1 [drawing 619],391,13,69
